For one assay, the system named is rice. The assay can be described thus: Test B pre-/postemergence herbicide test. The conditions noted are these: for Plant response rating, Rice: preemergence. Format: in vivo, Oryza sativa. The method, boiled down:
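Pre: seeds sown, then sprayed. Post: 1–4-leaf plants (2–18 cm) sprayed at the same time. Paddy: flooded, treated at 2-leaf stage. Formulation: non-phytotoxic solvent with surfactant. Greenhouse 13–15 days; visual 0–100 score relative to controls.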

In the next assay the test system is barnyardgrass. Briefly: Test A pre-/postemergence herbicide test. Type of assay: in vivo, Echinochloa crus-galli. The method, boiled down: (§1)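 Pre: seeded sandy loam, directed soil spray, compound in non-phytotoxic solvent + surfactant. Post: 1–2-leaf plants (2–10 cm), sprayed to runoff. Greenhouse ~10 d; visual injury vs untreated, 0–100 scale.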
In another assay the test system is redroot pigweed. The assay can be described thus: Test A pre-/postemergence herbicide test. Format: in vivo, Amaranthus retroflexus. The method, boiled down:
as §1

Another assay concerns pigweed. The assay can be described thus: Test C pre-/postemergence herbicide test. Type of assay: in vivo, Amaranthus retroflexus. The method, boiled down: (§2)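 Visual injury scores run from 0 (no effect) to 100 (complete control), assessed relative to untreated controls 12 to 14 days after treatment in the greenhouse. Chemicals were formulated in a non-phytotoxic solvent mixture with surfactant and applied to soil after planting or to emerged plants at the 1- to 4-leaf stage.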

A further assay relates to corn. Briefly: Test C pre-/postemergence herbicide test. Format: in vivo, Zea mays. The method, boiled down:
as §2

Another assay concerns johnsongrass. The assay can be described thus: Test C pre-/postemergence herbicide test. Format: in vivo, Sorghum halepense. The method, boiled down: as §2
In a further assay the test system is velvetleaf. Briefly: Test C pre-/postemergence herbicide test. Format: in vivo, Abutilon theophrasti. The method, boiled down:
as §2

For another assay, the system named is cocklebur. Briefly: Test C pre-/postemergence herbicide test. Format: in vivo, Xanthium strumarium. The method, boiled down:
as §2

Setting [1] is: Postemergence, 500 g ai/ha, 0 to 100 scale, 0 no effect, 100 complete control.
The mark [2] stands for this setting: Postemergence, 2000 g ai/ha, 0 to 100 scale, 0 no effect, 100 complete control.
[3] abbreviates: Preemergence, 500 g ai/ha, visual rating, 0 to 100 scale (0 no effect, 100 complete control).
The mark [4] stands for this setting: Preemergence, 2000 g ai/ha, visual rating, 0 to 100 scale (0 no effect, 100 complete control).
The mark [5] stands for this setting: preemergence, 500 g ai/ha, visual injury, 0 to 100 scale (0 no effect, 100 complete control).
[6] abbreviates: 125 g ai/ha, scale 0 (no effect) to 100 (complete control), visual, 12 to 14 days, preemergence.
Setting [7] is: Postemergence, 250 g ai/ha, scale 0 to 100, 0 no effect, 100 complete control.
The mark [8] stands for this setting: Postemergence, 500 g ai/ha, scale 0 to 100, 0 no effect, 100 complete control.
[9] abbreviates: postemergence, 125 g ai/ha, scale 0 to 100.
Setting [10] is: postemergence, 62 g ai/ha, scale 0 to 100.
[11] abbreviates: Preemergence, 2000 g ai/ha, 0 to 100 scale, 0 no effect, 100 complete control.
[12] abbreviates: 250 g ai/ha, scale 0 to 100 (0 no effect, 100 complete control), visual, 12 to 14 days, preemergence.
Setting [13] is: Postemergence, 500 g ai/ha, scale 0 to 100.
Where [14] appears, read: Preemergence, 500 g ai/ha, scale 0 to 100, 0 no effect, 100 complete control.
The mark [15] stands for this setting: 125 g ai/ha, scale 0-100, preemergence.
The mark [16] stands for this setting: Postemergence, 125 g ai/ha, scale 0 to 100, 0 no effect, 100 complete control.
Setting [17] is: 31 g ai/ha, preemergence, scale 0 to 100.

As to `CCn1nc(C(C)(C)C)cc1C(=O)Nc1cc(C(=O)NCC2CC2)ccn1` [Compound 155], the “Plant response rating, Rice” value with rice (500 g ai/ha, visual rating 0-100, 0 no effect, 100 complete control) came to 50; in the assay on rice (125 g ai/ha, 0 to 100 scale, 0 is no effect, 100 is complete control), 20.
On to `CC(=O)c1cccc(NC(=O)c2cc(C(C)(C)C)nn2CCF)c1` [Compound 128], for which the “Barnyardgrass plant response rating” value in the assay with barnyardgrass (setting [1]) stood at 70; in the assay on barnyardgrass (setting [3]), 55; in the assay with barnyardgrass (setting [4]) it was 85. For the same compound, the “Plant response rating, Barnyardgrass” value in the assay on barnyardgrass (setting [2]) was found to be 80. The figures for the “Pigweed plant response rating” value in the assay on redroot pigweed (setting [1]), in the assay on redroot pigweed (setting [4]) and with redroot pigweed (setting [5]) were 50, 95 and 60, respectively. The “Plant response rating, Pigweed” value in the assay with redroot pigweed (setting [2]) is on record as 80; in the assay with pigweed (setting [6]), 60. For the same compound, the “Plant response rating (0 = no effect, 100 = complete control), Corn” value in the assay on corn (62 g ai/ha, preemergence) worked out at 20. In the assay with corn (setting [6]), the “Plant response rating, Corn” value is reported as 20. For the same compound, in the assay with johnsongrass (62 g ai/ha, preemergence), the “Plant response rating (0 = no effect, 100 = complete control), Johnsongrass” value stood at 90. Moreover, in the assay on johnsongrass (setting [6]), the “Plant response rating, Johnsongrass” value worked out at 90. The “Plant response rating, Velvetleaf” value in the assay with velvetleaf (setting [6]) is 100. Moreover, in the assay on cocklebur (62 g ai/ha, preemergence), the “Plant response rating (0 = no effect, 100 = complete control), Cocklebur” value was found to be 10. For the same compound, in the assay with cocklebur (setting [6]), the “Plant response rating, Cocklebur” value is given as 10.
For `CCn1nc(C(C)(C)C)cc1C(=O)Nc1cc(OC(F)(F)F)ccc1F` [Compound 338], the figures for the “Barnyardgrass plant response rating” value in the assay on barnyardgrass (setting [1]), with barnyardgrass (setting [4]) and with barnyardgrass (setting [5]) were 20, 95 and 60, respectively. The “Plant response rating, Barnyardgrass” value in the assay with barnyardgrass (setting [2]) was determined as 35. The “Pigweed plant response rating” value in the assay with redroot pigweed (setting [1]) turned out to be 70; in the assay on redroot pigweed (setting [4]) it was 90; with redroot pigweed (setting [5]), 55. For the same compound, the “Plant response rating, Pigweed” value in the assay on redroot pigweed (setting [2]) is given as 95; in the assay on pigweed (setting [7]), 80; in the assay on pigweed (setting [8]), 80; in the assay on pigweed (setting [9]), 5; in the assay with pigweed (setting [10]), 0. Also, the “Plant response rating, Corn” value with corn (setting [7]) is listed as 10; with corn (setting [8]), 10; with corn (setting [9]), 0; in the assay on corn (setting [10]), 0. For the same compound, the “Plant response rating, Johnsongrass” value in the assay on johnsongrass (setting [7]), in the assay with johnsongrass (setting [8]), in the assay with johnsongrass (setting [9]) and with johnsongrass (setting [10]) was 0 throughout. Also, the “Plant response rating, Velvetleaf” value was 40 in the assay on velvetleaf (setting [7]), 80 with velvetleaf (setting [8]), 0 in the assay on velvetleaf (setting [9]) and 0 in the assay on velvetleaf (setting [10]). Moreover, the “Plant response rating, Cocklebur” value is listed as 5 in the assay with cocklebur (setting [7]), 5 with cocklebur (setting [8]), 0 with cocklebur (setting [9]) and 0 in the assay with cocklebur (setting [10]).
`C=Cn1nc(C(C)(C)C)cc1C(=O)Nc1cccc(C(=O)N(CC)CC)c1` [Compound 34]: the “Plant response rating, Barnyardgrass” value in the assay on barnyardgrass (setting [1]) came to 45; in the assay on barnyardgrass (setting [2]) it was 80. In addition, the “Barnyardgrass plant response rating” value in the assay on barnyardgrass (setting [3]) was determined as 55; in the assay on barnyardgrass (setting [11]), 80. The “Plant response rating, Pigweed” value in the assay on redroot pigweed (setting [1]) was 90; with redroot pigweed (setting [2]) it was 90; in the assay with pigweed (setting [12]) it was 100; with pigweed (setting [7]) it was 100; in the assay with pigweed (setting [9]), 100; in the assay with pigweed (setting [10]), 100. Moreover, the “Pigweed plant response rating” value in the assay on redroot pigweed (setting [3]), in the assay with redroot pigweed (setting [11]), in the assay with pigweed (setting [13]) and in the assay on pigweed (setting [14]) was 100 throughout. The “Plant response rating (0 = no effect, 100 = complete control), Pigweed” value with pigweed (62 g ai/ha, preemergence) came to 100. The “Plant response rating (0 = no effect, 100 = complete control), Corn” value in the assay on corn (62 g ai/ha, preemergence) is 0. The “Plant response rating, Corn” value in the assay with corn (setting [15]) is on record as 0; with corn (setting [12]), 0; in the assay on corn (setting [16]), 30; in the assay on corn (setting [7]), 50; with corn (setting [10]) it was 20. Further, the “Corn plant response rating” value with corn (setting [13]) was 70; with corn (setting [14]) it was 0. Further, the “Plant response rating (0 = no effect, 100 = complete control), Johnsongrass” value in the assay on johnsongrass (62 g ai/ha, preemergence) worked out at 50. For the same compound, the “Plant response rating, Johnsongrass” value in the assay on johnsongrass (setting [15]) is reported as 80; with johnsongrass (setting [12]) it was 100; with johnsongrass (setting [16]), 70; with johnsongrass (setting [7]), 70; with johnsongrass (setting [10]), 70. Besides, the “Johnsongrass plant response rating” value worked out at 80 with johnsongrass (setting [13]) and 100 in the assay on johnsongrass (setting [14]). In addition, the “Plant response rating (0 = no effect, 100 = complete control), Velvetleaf” value with velvetleaf (62 g ai/ha, preemergence) was 0. For the same compound, the “Plant response rating, Velvetleaf” value was found to be 90 in the assay with velvetleaf (setting [12]), 70 in the assay with velvetleaf (setting [7]), 70 in the assay on velvetleaf (setting [9]) and 20 with velvetleaf (setting [10]). In addition, the “Velvetleaf plant response rating” value with velvetleaf (setting [13]) was 70; with velvetleaf (setting [14]), 100. Besides, in the assay on cocklebur (62 g ai/ha, preemergence), the “Plant response rating (0 = no effect, 100 = complete control), Cocklebur” value came out at 0. Further, the “Plant response rating, Cocklebur” value with cocklebur (setting [15]) is given as 0; with cocklebur (setting [12]), 0; in the assay with cocklebur (setting [16]), 20; in the assay with cocklebur (setting [7]), 50; in the assay on cocklebur (setting [10]) it was 20. In addition, the “Cocklebur plant response rating” value in the assay with cocklebur (setting [13]) is on record as 70; in the assay on cocklebur (setting [14]), 0.
For the compound `CCNC(=O)c1cccc(NC(=O)c2cc(C(C)(C)C)nn2CCF)c1` [Compound 35], the results for the “Plant response rating, Barnyardgrass” value with barnyardgrass (setting [1]) and with barnyardgrass (setting [2]) were 70 and 85, respectively. Further, the “Barnyardgrass plant response rating” value is reported as 70 with barnyardgrass (setting [3]) and 90 with barnyardgrass (setting [11]). In addition, the “Plant response rating, Pigweed” value in the assay on redroot pigweed (setting [1]) came to 85; in the assay on redroot pigweed (setting [2]) it was 95; in the assay on pigweed (setting [17]) it was 0; in the assay on pigweed (setting [6]), 100; in the assay on pigweed (setting [9]), 100; in the assay with pigweed (setting [10]), 100. For the same compound, the “Pigweed plant response rating” value with redroot pigweed (setting [3]) and in the assay with redroot pigweed (setting [11]) was 100 each time. Also, the “Plant response rating (0 = no effect, 100 = complete control), Pigweed” value in the assay with pigweed (62 g ai/ha, preemergence) was found to be 90. The “Plant response rating, Corn” value in the assay with corn (setting [17]) is on record as 0; in the assay on corn (setting [6]) it was 0; in the assay on corn (setting [16]), 40; in the assay on corn (setting [10]), 30. Further, the “Plant response rating (0 = no effect, 100 = complete control), Corn” value in the assay with corn (62 g ai/ha, preemergence) is on record as 0. For the same compound, the “Plant response rating, Johnsongrass” value amounted to 10 in the assay on johnsongrass (setting [17]), 70 in the assay with johnsongrass (setting [6]), 70 in the assay on johnsongrass (setting [16]) and 70 in the assay on johnsongrass (setting [10]). In addition, the “Plant response rating (0 = no effect, 100 = complete control), Johnsongrass” value in the assay on johnsongrass (62 g ai/ha, preemergence) came out at 50. In addition, the “Plant response rating, Velvetleaf” value is 0 in the assay on velvetleaf (setting [17]), 100 with velvetleaf (setting [6]), 80 with velvetleaf (setting [9]) and 70 in the assay on velvetleaf (setting [10]). For the same compound, the “Plant response rating (0 = no effect, 100 = complete control), Velvetleaf” value with velvetleaf (62 g ai/ha, preemergence) amounted to 100. In addition, the “Plant response rating, Cocklebur” value in the assay on cocklebur (setting [17]) amounted to 0; in the assay on cocklebur (setting [6]), 20; in the assay with cocklebur (setting [16]), 70; in the assay with cocklebur (postemergence, 16 g ai/ha, scale 0 to 100), 20; in the assay with cocklebur (postemergence, 31 g ai/ha, scale 0 to 100) it was 20; in the assay with cocklebur (setting [10]), 60. Moreover, the “Plant response rating (0 = no effect, 100 = complete control), Cocklebur” value with cocklebur (62 g ai/ha, preemergence) was 0.
`CCN(CC)C(=O)c1cncc(NC(=O)c2cc(C(C)(C)C)nn2CC)c1` [Compound 261, 5-[[[3-(1,1-dimethylethyl)-1-ethyl-1H-pyrazol-5-yl]carbonyl]amino]-N,N-diethyl-3-pyridinecarboxamide]: in the assay with rice (Oryza sativa, pre-emergence, 336 h, 125 g ai/ha, 0 = no effect, 100 = complete control, read-out: Rice plant response rating (0 to 100 scale)), the plant injury at 125 g/ha is 0%. In the assay on rice (Oryza sativa, pre-emergence, 336 h, 500 g ai/ha, visual rating, 0 = no effect, 100 = complete control, read-out: Plant response rating, Rice), the plant injury at 500 g/ha stood at 60%.

The record behind these values is patent publication US20060069132A1, “Azolecarboxamide herbicides” (priority 2004, published 2006).
